In patent publication US20250032454A1, “KDM1A INHIBITORS FOR THE TREATMENT OF DISEASE” (Imago Biosciences, Inc., priority 2021, published 2025):

Molecular target: LSD1 (Homo sapiens, UniProt O60341)
Assay: LSD1 fluorescence coupling enzyme assay (HRP/Amplex Red, H3(1-21)K4me2 peptide), 10-dose IC50
Assay type: biochemical
Conditions: 10 μM histone H3(1-21)K4me2 peptide substrate, 3-fold serial dilution from 100 μM
Excerpt: Assaying the inhibition of KDM1A can be determined in vitro, in cultured cells, and in animals. There are a variety of spectrophotometric methods to detect the results of demethylation of methylated lysines, viz., detecting the products of KDM1A demethylase oxidative activity on a peptide fragment of at least 18 amino acids representing the N-terminus of the histone H3 substrate that contains a monomethyl at the fourth lysine residue. Hydrogen peroxide, one product of the KDM1A demethylase reaction, reacts with horseradish peroxidase and dihydroxyphenoxazine (ADHP) to produce the fluorescent compound resorufin (excitation=530-560 nm: emission=590 nm). The KDM1A demethylase enzyme activity can be obtained from mammalian cells or tissues expressing KDM1A from an endogenous or recombinant gene and purified or assayed from a whole cell extract. These methods can be used to determine the concentration of the disclosed compounds can inhibit fifty percent of the enzyme activity (IC50).
Alternatively, the production of H2O2 during the KDM1A reaction can be detected fluometrically. In this system, the production of H2O2 is detected in the HDM assay buffer after exposure to substrate, co-factor and enzyme using ADHP (10-Acetyl-3, 7-dihydroxyphenoxazine) as a fluorogenic substrate for horse radish peroxidase (HRP). […] The florescent product is resorufin. Sensitivity can be as low as 10-15 M of target protein. The signal is read using a fluorescence microplate reader at excitation and emission wavelengths of 530-560 nm and 590 nm, respectively.
Compounds were tested in a 10-dose IC50 mode fluorescence coupling enzyme assay with 3-fold serial dilution in duplicate starting at 100 μM. The production of FAD-dependent H2O2 as a result of demethylase activity of LSD1 on 10 μM histone H3(1-21)K4me2 peptide substrate was measured by coupling with HRP and Amplex Red to yield resorufin (fluorescence measured at Ex/Em=535/590 nm on EnVision, Perkin Elmer).

IC50 [nM] | SMILES
< 500 | CN1CCN(c2ccc(-n3nc(NC[C@H]4CCC[C@H](N)C4)cc3-c3ccc(C#N)c(F)c3)c(F)c2)CC1=O [Example 109, 4-(3-((((1S,3S)-3-aminocyclohexyl)methyl)amino)-1-(2-fluoro-4-(4-methyl-3-oxopiperazin-1-yl)phenyl)-1H-pyrazol-5-yl)-2-fluorobenzonitrile]
1000 to 10000 | COc1cc(N2CCC(C)(O)CC2)ccc1-n1nc(NC[C@H]2CCC[C@H](N)C2)cc1-c1ccc(C#N)c(F)c1 [Example 115, 4-(3-((((1S,3S)-3-aminocyclohexyl)methyl)amino)-1-(4-(4-hydroxy-4-methylpiperidin-1-yl)-2-methoxyphenyl)-1H-pyrazol-5-yl)-2-fluorobenzonitrile 2,2,2-trifluoroacetate]
< 500 | N#Cc1ccc(-c2cc(NCC3CCCNCC3)nn2-c2ccc(N3CCS(=O)(=O)CC3)cc2F)cc1F (stereo not drawn) [Example 107, 4-(3-((azepan-4-ylmethyl)amino)-1-(4-(1,1-dioxidothiomorpholino)-2-fluorophenyl)-1H-pyrazol-5-yl)-2-fluorobenzonitrile]
< 500 | N#Cc1ccc(-c2cc(NC[C@@H]3CCC[C@@H](N)C3)nn2-c2ccc(N3CCSCC3)cc2)cc1F [Example 100, 4-(3-((((1R,3R)-3-aminocyclohexyl)methyl)amino)-1-(4-thiomorpholinophenyl)-1H-pyrazol-5-yl)-2-fluorobenzonitrile]
1000 to 10000 | COC1CCN(c2cccc(-n3nc(NC[C@H]4CCC[C@H](N)C4)cc3-c3ccc(C#N)c(F)c3)c2)CC1 [Example 118, 4-(3-((((1S,3S)-3-aminocyclohexyl)methyl)amino)-1-(3-(4-methoxypiperidin-1-yl)phenyl)-1H-pyrazol-5-yl)-2-fluorobenzonitrile 2,2,2-trifluoroacetate]
< 500 | N#Cc1ccc(-c2cc(NCC3CNCCO3)nn2-c2ccc(N3CCS(=O)(=O)CC3)cc2F)cc1F (stereo not drawn) [Example 108, 4-(1-(4-(1,1-dioxidothiomorpholino)-2-fluorophenyl)-3-((morpholin-2-ylmethyl)amino)-1H-pyrazol-5-yl)-2-fluorobenzonitrile 2,2,2-trifluoroacetate]
< 500 | N#Cc1ccc(-c2cc(NC[C@H]3CCC[C@H](N)C3)nn2-c2ccc(N3CCC4(CCCO4)CC3)cc2)cc1F [Example 95, 4-(1-(4-(1-Oxa-8-azaspiro[4.5]decan-8-yl)phenyl)-3-((((1S,3S)-3-aminocyclohexyl)methyl)amino)-1H-pyrazol-5-yl)-2-fluorobenzonitrile 2,2,2-trifluoroacetate]
< 500 | COc1ccc(-n2nc(NC[C@H]3CCCNC3)cc2-c2ccc(C#N)c(F)c2)cc1 [Example 3S, (S)-2-fluoro-4-(1-(4-methoxyphenyl)-3-((piperidin-3-ylmethyl)amino)-1H-pyrazol-5-yl)benzonitrile]
< 500 | N#Cc1ccc(-c2cc(NC[C@@H]3CCCNCC3)nn2-c2ccc(N3CC[S+]([O-])CC3)cc2)cc1F [Example 91, (R)-4-(3-((azepan-4-ylmethyl)amino)-1-(4-(1-oxidothiomorpholino)phenyl)-1H-pyrazol-5-yl)-2-fluorobenzonitrile 2,2,2-trifluoroacetate]
< 500 | N#Cc1ccc(-c2cc(NC[C@H]3CCC[C@H](N)C3)nn2-c2ccc(N3CCC(O)CC3)cc2)cc1F [Example 89, 4-(3-((((1S,3S)-3-aminocyclohexyl)methyl)amino)-1-(4-(4-hydroxypiperidin-1-yl)phenyl)-1H-pyrazol-5-yl)-2-fluorobenzonitrile]
< 500 | N#Cc1ccc(-c2cc(NC[C@H]3CCC[C@H](N)C3)nn2-c2ccc(N3CCNC(=O)C3)cc2)cc1F [Example 104, 4-(3-((((1S,3S)-3-aminocyclohexyl)methyl)amino)-1-(4-(3-oxopiperazin-1-yl)phenyl)-1H-pyrazol-5-yl)-2-fluorobenzonitrile]
< 500 | COc1ccc(-n2nc(NC[C@@H]3CCCNC3)cc2-c2ccc(C#N)c(F)c2)cc1 [Example 3R, (R)-2-fluoro-4-(1-(4-methoxyphenyl)-3-((piperidin-3-ylmethyl)amino)-1H-pyrazol-5-yl)benzonitrile]
< 500 | CN(c1ccc(-n2nc(NC[C@H]3CCC[C@H](N)C3)cc2-c2ccc(C#N)c(F)c2)cc1)C1CCOCC1 [Example 93, 4-(3-((((1S,3S)-3-aminocyclohexyl)methyl)amino)-1-(4-(methyl(tetrahydro-2H-pyran-4-yl)amino)phenyl)-1H-pyrazol-5-yl)-2-fluorobenzonitrile 2,2,2-trifluoroacetate]
< 500 | COc1cc(N2CCC(OC)CC2)ccc1-n1nc(NC[C@H]2CCC[C@H](N)C2)cc1-c1ccc(C#N)c(F)c1 [Example 114, 4-(3-((((1S,3S)-3-aminocyclohexyl)methyl)amino)-1-(2-methoxy-4-(4-methoxypiperidin-1-yl)phenyl)-1H-pyrazol-5-yl)-2-fluorobenzonitrile 2,2,2-trifluoroacetate]
< 500 | N#Cc1ccc(-c2cc(NCC3CCCNCC3)nn2-c2ccc(N3CC[S+]([O-])CC3)cc2)cc1F (stereo not drawn) [Example 90, 4-(3-((Azepan-4-ylmethyl)amino)-1-(4-(1-oxidothiomorpholino)phenyl)-1H-pyrazol-5-yl)-2-fluorobenzonitrile 2,2,2-trifluoroacetate]
< 500 | N#Cc1ccc(-c2cc(NC[C@@H]3CCCNCC3)nn2-c2ccc(N3CCS(=O)(=O)CC3)cc2F)cc1F [Example 106, (R)-4-(3-((azepan-4-ylmethyl)amino)-1-(4-(1,1-dioxidothiomorpholino)-2-fluorophenyl)-1H-pyrazol-5-yl)-2-fluorobenzonitrile]
< 500 | N#Cc1ccc(-c2cc(NC[C@@H]3CCCNCC3)nn2-c2ccc(N3CCS(=O)(=O)CC3)c(F)c2)cc1F [Example 111, (R)-4-(3-((azepan-4-ylmethyl)amino)-1-(4-(1,1-dioxidothiomorpholino)-3-fluorophenyl)-1H-pyrazol-5-yl)-2-fluorobenzonitrile 2,2,2-trifluoroacetate]
< 500 | CO[C@H]1CCCN(c2ccc(-n3nc(NC[C@H]4CCC[C@H](N)C4)cc3-c3ccc(C#N)c(F)c3)cc2)C1 [Example 98, 4-(3-((((1S,3S)-3-aminocyclohexyl)methyl)amino)-1-(4-((S)-3-methoxypiperidin-1-yl)phenyl)-1H-pyrazol-5-yl)-2-fluorobenzonitrile 2,2,2-trifluoroacetate]
< 500 | COc1cc(N2CCS(=O)(=O)CC2)ccc1-n1nc(NC[C@H]2CCCNCC2)cc1-c1ccc(C#N)c(F)c1 [Example 112, (S)-4-(3-((azepan-4-ylmethyl)amino)-1-(4-(1,1-dioxidothiomorpholino)-2-methoxyphenyl)-1H-pyrazol-5-yl)-2-fluorobenzonitrile 2,2,2-trifluoroacetate]
< 500 | COC1CCN(c2ccc(-n3nc(NC[C@H]4CCC[C@H](N)C4)cc3-c3ccc(C#N)c(F)c3)nc2)CC1 [Example 120, 4-(3-((((1S,3S)-3-aminocyclohexyl)methyl)amino)-1-(5-(4-methoxypiperidin-1-yl)pyridin-2-yl)-1H-pyrazol-5-yl)-2-fluorobenzonitrile 2,2,2-trifluoroacetate]

SMILES | IC50 [nM]
N#Cc1ccc(-c2cc(NCC34CCN(CC3)CC4)nn2-c2ccc3c(c2)NCCO3)cc1F [Example 123, 4-(1-(3,4-Dihydro-2H-benzo[b][1,4]oxazin-6-yl)-3-((quinuclidin-4-ylmethyl)amino)-1H-pyrazol-5-yl)-2-fluorobenzonitrile 2,2,2-trifluoroacetate] | < 500
COc1cc(N2CCS(=O)(=O)CC2)ccc1-n1nc(NCC23CCN(CC2)CC3)cc1-c1ccc(C#N)c(F)c1 [Example 126, 4-(1-(4-(1,1-Dioxidothiomorpholino)-2-methoxyphenyl)-3-((quinuclidin-4-ylmethyl)amino)-1H-pyrazol-5-yl)-2-fluorobenzonitrile 2,2,2-trifluoroacetate] | < 500
COC1(C)CCN(c2ccc(-n3nc(NCC45CCN(CC4)CC5)cc3-c3ccc(C#N)c(F)c3)cc2)CC1 [Example 125, 2-Fluoro-4-(1-(4-(4-methoxy-4-methylpiperidin-1-yl)phenyl)-3-((quinuclidin-4-ylmethyl)amino)-1H-pyrazol-5-yl)benzonitrile 2,2,2-trifluoroacetate] | < 500
N#Cc1ccc(-c2cc(NCC34CCN(CC3)CC4)nn2-c2ccc(N3CC4CC3CS4(=O)=O)cc2)cc1F (stereo not drawn) [Example 121, 4-(1-(4-(2,2-Dioxido-2-thia-5-azabicyclo[2.2.1]heptan-5-yl)phenyl)-3-((quinuclidin-4-ylmethyl)amino)-1H-pyrazol-5-yl)-2-fluorobenzonitrile 2,2,2-trifluoroacetate] | < 500
